From US20140303164A1, “THERAPEUTIC COMPOUNDS” (Gilead Sciences, Inc., priority 2013, published 2014)

How the values were obtained:
HIV-IIIb = test: Test A: Antiviral Assay in MT4 Cells; format: cell-based, HIV-1; details: Human immunodeficiency virus 1, IIIB, MT4, 120 h; for inhibition at 0.2 µM: read-out: % inhibition at 0.2 μM; for inhibition at 2 µM: read-out: % inhibition at 2 μM
Protocol: Test A: Antiviral Assay in MT4 Cells
MT-4 cells were next mixed with HIV-IIIb at an m.o.i of 0.003 for 1 hour, after which time 35 μL of virus/cell mixture (2000 cells) was immediately added to each well containing 40 μL of diluted compound. The plates were then incubated at 37° C. for 5 days. […] Cell lysis was carried out by incubating at room temperature for 10 min and then chemiluminescence was read.

[1] = Test B: Cytotoxicity Assay; format: cell-based; details: human, uninfected MT-4 cells, same protocol as Test A
Procedure, shortened: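 Uninfected MT-4 cells (2000 per well) incubated with diluted compound at 37° C. for 5 days, following the antiviral protocol without HIV-IIIb.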

Structure (SMILES) | inhibition at 0.2 µM (HIV-IIIb) [%] | inhibition at 2 µM (HIV-IIIb) [%] | CC50 at 5 days [1] [µM]
Cn1nc(NS(C)(=O)=O)c2c(Cl)ccc(-c3ccc(-c4cnc(C(C)(C)C)s4)nc3[C@H](Cc3cc(F)cc(F)c3)NC(=O)Cn3nc(C(F)(F)F)c4c3C(F)(F)[C@@H]3C[C@H]43)c21 [Compound 178, N—((S)-1-(6-(2-(tert-butyl)thiazol-5-yl)-3-(4-chloro-1-methyl-3-(methylsulfonamido)-1H-indazol-7-yl)pyridin-2-yl)-2-(3,5-difluorophenyl)ethyl)-2-((3b-S,4aR)-5,5-difluoro-3-(trifluoromethyl)-3b,4,4a,5-tetrahydro-1H-cyclopropa[3,4]cyclopenta[1,2-c]pyrazol-1-yl)acetamide] | 95 | 100 | 14
Cn1cnc(-c2ccc(-c3ccc(Cl)c4c(NS(C)(=O)=O)nn(C)c34)c([C@H](Cc3cc(F)cc(F)c3)NC(=O)Cn3nc(C(F)(F)F)c4c3C(F)(F)[C@@H]3C[C@H]43)n2)c1 [Compound 179, N—((S)-1-(3-(4-chloro-1-methyl-3-(methylsulfonamido)-1H-indazol-7-yl)-6-(1-methyl-1H-imidazol-4-yl)pyridin-2-yl)-2-(3,5-difluorophenyl)ethyl)-2-((3b-S,4aR)-5,5-difluoro-3-(trifluoromethyl)-3b,4,4a,5-tetrahydro-1H-cyclopropa[3,4]cyclopenta[1,2-c]pyrazol-1-yl)acetamide] | 100 | 100 | 15.5
Cn1nc(NS(C)(=O)=O)c2c(Cl)ccc(-c3cc(-c4ccccc4Cl)cnc3[C@H](Cc3cc(F)cc(F)c3)NC(=O)Cn3nc(C(F)F)c4c3C(F)(F)[C@@H]3C[C@H]43)c21 [Compound 181C, N—((S)-1-(3-(4-chloro-1-methyl-3-(methylsulfonamido)-1H-indazol-7-yl)-5-(2-chlorophenyl)pyridin-2-yl)-2-(3,5-difluorophenyl)ethyl)-2-((3b-S,4aR)-3-(difluoromethyl)-5,5-difluoro-3b,4,4a,5-tetrahydro-1H-cyclopropa[3,4]cyclopenta[1,2-c]pyrazol-1-yl)acetamide] | 100 | 100 | > 53.2
CNc1cc(-c2ccc(Cl)c3c(NS(C)(=O)=O)nn(C)c23)c([C@H](Cc2cc(F)cc(F)c2)NC(=O)Cn2nc(C(F)F)c3c2C(F)(F)[C@@H]2C[C@H]32)nc1C#CC(C)(C)O [Compound 182L, N—((S)-1-(3-(4-chloro-1-methyl-3-(methylsulfonamido)-1H-indazol-7-yl)-6-(3-hydroxy-3-methylbut-1-yn-1-yl)-5-(methylamino)pyridin-2-yl)-2-(3,5-difluorophenyl)ethyl)-2-((3b-S,4aR)-3-(difluoromethyl)-5,5-difluoro-3b,4,4a,5-tetrahydro-1H-cyclopropa[3,4]cyclopenta[1,2-c]pyrazol-1-yl)acetamide] | 100 | 100 | 9.83
CN(C)c1cc(-c2ccc(Cl)c3c(NS(C)(=O)=O)nn(C)c23)c([C@H](Cc2cc(F)cc(F)c2)NC(=O)Cn2nc(C(F)F)c3c2C(F)(F)[C@@H]2C[C@H]32)nc1C#CC(C)(C)O [Compound 183F, N—((S)-1-(3-(4-chloro-1-methyl-3-(methylsulfonamido)-1H-indazol-7-yl)-5-(dimethylamino)-6-(3-hydroxy-3-methylbut-1-yn-1-yl)pyridin-2-yl)-2-(3,5-difluorophenyl)ethyl)-2-((3b-S,4aR)-3-(difluoromethyl)-5,5-difluoro-3b,4,4a,5-tetrahydro-1H-cyclopropa[3,4]cyclopenta[1,2-c]pyrazol-1-yl)acetamide] | 84 | 84 | 12.4
